{"source": "patent US20110098177A1", "about": "“METHODS AND COMPOSITIONS OF PLANT MICRONUTRIENTS” (NOVUS INTERNATIONAL INC., priority 2006, published 2011)", "assay_type_in_all_cases": "in vivo", "key": {"[1]": {"tested_on": "Tygress tomato plants", "test": "Foliar nutrient concentration 2 weeks after treatment, greenhouse tomato (Examples 4-6)", "conditions": "for B concentration in tomato leaves / Ca concentration in tomato leaves / Cu concentration in tomato leaves / Fe concentration in tomato leaves / K concentration in tomato leaves / Mg concentration in tomato leaves / Mn concentration in tomato leaves / N concentration in tomato leaves / P concentration in tomato leaves: 2 weeks after treatment", "how_it_was_run": "(§1)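 Tygress tomato in 2-gallon pots of micronutrient-poor medium (negligible Fe, Zn, Mn, Cu) in greenhouse; foliar treatments at 5 WAT in 200 mL/plant water with non-ionic surfactant. Newest non-applied leaves analysed 2 weeks before and after treatment; marketable fruit harvested three times from 10 WAT, graded. RCBD, 6 replications, LSD 5%.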"}, "[2]": {"tested_on": "Tygress tomato plants", "test": "Yields of tomato fruits, greenhouse (Examples 4-6)", "conditions": "for Marketable yield: tomato fruits", "how_it_was_run": "as §1"}, "[3]": {"tested_on": "Tygress tomato plants", "test": "Plant injury observed after BIOX-A foliar application, greenhouse tomato (Example 6)", "conditions": "BIOX-A at concentrations of 2.86 or higher", "description": "The following experiments were performed in a green house during the fall of 2008 and spring of 2009 at GCREC, Balm, University of Florida. Crop set-up, procedures and variables were as follows. […] Irrigation and non-micronutrient fertilizer were provided daily through microsprinklers at recommended rates for tomato production in Florida. No pesticides were used. Treatments were as described in Tables 4, 5 and 6 below. […] Treatments were applied at 5 WAT (weeks after transplanting) using a water volume of 200 mL/plant. A non-ionic surfactant was added. […] There were no significant differences between the foliar nutrient concentration of the leaves of any of the treatment groups prior to treatment."}}, "data": [{"smiles": "CSCCC(O)C(=O)O", "note": "(stereo not shown) [BIOX-A, 2-hydroxy-4(methylthio)butanoic acid]", "values": [{"measurement": "B concentration in tomato leaves", "setting": "[1]; BIOX-A 0.69 lb/acre", "result": 27, "unit": "ppm"}, {"measurement": "Ca concentration in tomato leaves", "setting": "[1]; BIOX-A 0.69 lb/acre", "result": 0.5, "unit": "%"}, {"measurement": "Cu concentration in tomato leaves", "setting": "[1]; BIOX-A 0.69 lb/acre", "result": 29, "unit": "ppm"}, {"measurement": "Fe concentration in tomato leaves", "setting": "[1]; BIOX-A 0.69 lb/acre", "result": 85, "unit": "ppm"}, {"measurement": "K concentration in tomato leaves", "setting": "[1]; BIOX-A 0.69 lb/acre", "result": 3.2, "unit": "%"}, {"measurement": "Mg concentration in tomato leaves", "setting": "[1]; BIOX-A 0.69 lb/acre", "result": 0.3, "unit": "%"}, {"measurement": "Mn concentration in tomato leaves", "setting": "[1]; BIOX-A 0.69 lb/acre", "result": 56, "unit": "ppm"}, {"measurement": "N concentration in tomato leaves", "setting": "[1]; BIOX-A 0.69 lb/acre", "result": 3.4, "unit": "%"}, {"measurement": "P concentration in tomato leaves", "setting": "[1]; BIOX-A 0.69 lb/acre", "result": 0.6, "unit": "%"}, {"measurement": "B concentration in tomato leaves", "setting": "[1]; BIOX-A 1.37 lb/acre", "result": 28, "unit": "ppm"}, {"measurement": "Ca concentration in tomato leaves", "setting": "[1]; BIOX-A 1.37 lb/acre", "result": 0.6, "unit": "%"}, {"measurement": "Cu concentration in tomato leaves", "setting": "[1]; BIOX-A 1.37 lb/acre", "result": 31, "unit": "ppm"}, {"measurement": "Fe concentration in tomato leaves", "setting": "[1]; BIOX-A 1.37 lb/acre", "result": 88, "unit": "ppm"}, {"measurement": "K concentration in tomato leaves", "setting": "[1]; BIOX-A 1.37 lb/acre", "result": 3.4, "unit": "%"}, {"measurement": "Mg concentration in tomato leaves", "setting": "[1]; BIOX-A 1.37 lb/acre", "result": 0.3, "unit": "%"}, {"measurement": "Mn concentration in tomato leaves", "setting": "[1]; BIOX-A 1.37 lb/acre", "result": 55, "unit": "ppm"}, {"measurement": "N concentration in tomato leaves", "setting": "[1]; BIOX-A 1.37 lb/acre", "result": 3.7, "unit": "%"}, {"measurement": "P concentration in tomato leaves", "setting": "[1]; BIOX-A 1.37 lb/acre", "result": 0.4, "unit": "%"}, {"measurement": "B concentration in tomato leaves", "setting": "[1]; BIOX-A 2.86 lb/acre", "result": 28, "unit": "ppm"}, {"measurement": "Ca concentration in tomato leaves", "setting": "[1]; BIOX-A 2.86 lb/acre", "result": 0.6, "unit": "%"}, {"measurement": "Cu concentration in tomato leaves", "setting": "[1]; BIOX-A 2.86 lb/acre", "result": 50, "unit": "ppm"}, {"measurement": "Fe concentration in tomato leaves", "setting": "[1]; BIOX-A 2.86 lb/acre", "result": 87, "unit": "ppm"}, {"measurement": "K concentration in tomato leaves", "setting": "[1]; BIOX-A 2.86 lb/acre", "result": 3.3, "unit": "%"}, {"measurement": "Mg concentration in tomato leaves", "setting": "[1]; BIOX-A 2.86 lb/acre", "result": 0.1, "unit": "%"}, {"measurement": "Mn concentration in tomato leaves", "setting": "[1]; BIOX-A 2.86 lb/acre", "result": 54, "unit": "ppm"}, {"measurement": "N concentration in tomato leaves", "setting": "[1]; BIOX-A 2.86 lb/acre", "result": 3.1, "unit": "%"}, {"measurement": "P concentration in tomato leaves", "setting": "[1]; BIOX-A 2.86 lb/acre", "result": 0.4, "unit": "%"}, {"measurement": "B concentration in tomato leaves", "setting": "[1]; BIOX-A 5.52 lb/acre", "result": 24, "unit": "ppm"}, {"measurement": "Ca concentration in tomato leaves", "setting": "[1]; BIOX-A 5.52 lb/acre", "result": 0.6, "unit": "%"}, {"measurement": "Cu concentration in tomato leaves", "setting": "[1]; BIOX-A 5.52 lb/acre", "result": 28, "unit": "ppm"}, {"measurement": "Fe concentration in tomato leaves", "setting": "[1]; BIOX-A 5.52 lb/acre", "result": 90, "unit": "ppm"}, {"measurement": "K concentration in tomato leaves", "setting": "[1]; BIOX-A 5.52 lb/acre", "result": 2.1, "unit": "%"}, {"measurement": "Mg concentration in tomato leaves", "setting": "[1]; BIOX-A 5.52 lb/acre", "result": 0.1, "unit": "%"}, {"measurement": "Mn concentration in tomato leaves", "setting": "[1]; BIOX-A 5.52 lb/acre", "result": 53, "unit": "ppm"}, {"measurement": "N concentration in tomato leaves", "setting": "[1]; BIOX-A 5.52 lb/acre", "result": 2.7, "unit": "%"}, {"measurement": "P concentration in tomato leaves", "setting": "[1]; BIOX-A 5.52 lb/acre", "result": 0.5, "unit": "%"}, {"measurement": "B concentration in tomato leaves", "setting": "[1]; BIOX-A 8.28 lb/acre", "result": 25, "unit": "ppm"}, {"measurement": "Ca concentration in tomato leaves", "setting": "[1]; BIOX-A 8.28 lb/acre", "result": 0.5, "unit": "%"}, {"measurement": "Cu concentration in tomato leaves", "setting": "[1]; BIOX-A 8.28 lb/acre", "result": 25, "unit": "ppm"}, {"measurement": "Fe concentration in tomato leaves", "setting": "[1]; BIOX-A 8.28 lb/acre", "result": 9, "unit": "ppm"}, {"measurement": "K concentration in tomato leaves", "setting": "[1]; BIOX-A 8.28 lb/acre", "result": 0.9, "unit": "%"}, {"measurement": "Mg concentration in tomato leaves", "setting": "[1]; BIOX-A 8.28 lb/acre", "result": 0.1, "unit": "%"}, {"measurement": "Mn concentration in tomato leaves", "setting": "[1]; BIOX-A 8.28 lb/acre", "result": 57, "unit": "ppm"}, {"measurement": "N concentration in tomato leaves", "setting": "[1]; BIOX-A 8.28 lb/acre", "result": 1.7, "unit": "%"}, {"measurement": "P concentration in tomato leaves", "setting": "[1]; BIOX-A 8.28 lb/acre", "result": 0.6, "unit": "%"}, {"measurement": "Effect on foliar concentration of N, P, K, Mg, Ca, B, Mn, Fe and Zn relative to the control", "setting": "[1]; BIOX-A, all applied concentrations, P>0.05", "result": "None of the applied concentrations of BIOX-A had a significant effect"}, {"measurement": "Marketable and unmarketable yields (in words)", "setting": "[2]; 1.37 lb/acre or less of BIOX-A", "result": "statistically similar"}, {"measurement": "Marketable yield", "setting": "[2]; BIOX-A 0.69 lb/acre", "result": 2.3, "unit": "lb/plant"}, {"measurement": "Marketable yield", "setting": "[2]; BIOX-A 1.37 lb/acre", "result": 2.4, "unit": "lb/plant"}, {"measurement": "Marketable yield", "setting": "[2]; BIOX-A 2.86 lb/acre", "result": 1.1, "unit": "lb/plant"}, {"measurement": "Marketable yield", "setting": "[2]; BIOX-A 5.52 lb/acre", "result": 0, "unit": "lb/plant"}, {"measurement": "Marketable yield", "setting": "[2]; BIOX-A 8.28 lb/acre", "result": 0, "unit": "lb/plant"}, {"measurement": "Non-marketable tomato yields compared with control (in words)", "setting": "[2]; BIOX-A at concentrations of 2.86 or higher", "result": "significantly higher non-marketable tomato yields than control"}, {"measurement": "Marketable tomato yields (in words)", "setting": "[2]; BIOX-A at concentrations of 2.86 or higher, P<0.05", "result": "significantly decreased"}, {"measurement": "Plant injury (in words)", "setting": "[3]", "result": "severely injured tomato plants"}]}]}
